# According to ChEMBL document CHEMBL4270597, “Donepezil-butylated hydroxytoluene (BHT) hybrids as Anti-Alzheimer's disease agents with cholinergic, antioxidant, and neuroprotective properties” (Eur J Med Chem, 2018):
# Active and inactive are the calls of the source. The rule behind the calls is not given here.
# Assays:
# PC-12 [1] = assay: Neuroprotective activity against H2O2-induced apoptosis in rat PC12 cells assessed as late apoptotic cells at 10 uM after 24 hrs by Annexin V-FITC/propidium iodide staining-based flow cytometry (reference value: 25.3%); type: functional
# Acetylcholinesterase [2] = biological target: Acetylcholinesterase (Electrophorus electricus, UniProt O42275); assay: Inhibition of electric eel AChE using acetylthiocholine chloride as substrate incubated for 5 mins followed by substrate addition measured after 180 secs by Ellman's method
# PC-12 [3] = assay: Neuroprotective activity against H2O2-induced apoptosis in rat PC12 cells assessed as late apoptotic cells at 5 uM after 24 hrs by Annexin V-FITC/propidium iodide staining-based flow cytometry (reference value: 25.3%); type: functional
# Cholinesterase = Cholinesterase (Homo sapiens, UniProt P06276); assay: Inhibition of human serum BuChE at 100 uM using butyrylthiocholine iodide as substrate incubated for 5 mins followed by substrate addition measured after 180 secs by Ellman's method relative to control
# Homo sapiens = species: Homo sapiens; assay: Selectivity index, ratio of IC50 for human serum BuChE to IC50 for human erythrocyte AChE
# PC-12 [4] = assay: Neuroprotective activity against H2O2-induced apoptosis in rat PC12 cells assessed as late apoptotic cells at 2.5 uM after 24 hrs by Annexin V-FITC/propidium iodide staining-based flow cytometry (reference value: 25.3%); type: functional
# Acetylcholinesterase [5] = biological target: Acetylcholinesterase (Homo sapiens, UniProt P22303); assay: Mixed-type inhibition of human AChE using acetylthiocholine chloride as substrate incubated for 5 mins followed by substrate addition by Lineweaver-Burk plot analysis
# PC-12 [6] = assay: Neuroprotective activity against H2O2-induced oxidative stress in rat PC12 cells assessed as increase in cell viability pretreated for 4 hrs followed by H2O2 challenge measured after 24 hrs by MTT assay; type: functional, cell-based
# PC-12 [7] = assay: Cytotoxicity against rat PC12 cells assessed as decrease in cell viability at 20 uM after 24 hrs by MTT assay; type: cell-based; conditions: pc-12, 24 h
# [8] = biological target: T1, Amine oxidase [flavin-containing] A (Homo sapiens, UniProt P21397); assay: Inhibition of human MAO-A using p-tyramine as substrate incubated for 15 mins followed by substrate addition measured for 20 mins by fluorescence assay
# T1 sequence (P21397 whole entry): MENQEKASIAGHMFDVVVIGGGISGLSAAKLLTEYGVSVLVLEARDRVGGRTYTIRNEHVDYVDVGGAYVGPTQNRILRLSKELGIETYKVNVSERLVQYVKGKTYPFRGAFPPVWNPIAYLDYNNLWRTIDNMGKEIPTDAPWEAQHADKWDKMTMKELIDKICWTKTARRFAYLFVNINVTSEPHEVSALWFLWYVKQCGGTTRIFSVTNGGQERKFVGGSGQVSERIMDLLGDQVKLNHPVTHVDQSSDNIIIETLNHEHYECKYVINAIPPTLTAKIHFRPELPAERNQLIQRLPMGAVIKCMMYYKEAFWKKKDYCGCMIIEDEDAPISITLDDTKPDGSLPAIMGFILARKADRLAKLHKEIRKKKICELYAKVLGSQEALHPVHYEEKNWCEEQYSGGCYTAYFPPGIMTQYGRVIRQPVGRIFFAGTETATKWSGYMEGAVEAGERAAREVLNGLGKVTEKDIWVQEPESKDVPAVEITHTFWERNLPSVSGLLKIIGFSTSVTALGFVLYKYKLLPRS
# [9] = biological target: T2, Amine oxidase [flavin-containing] B (Homo sapiens, UniProt P27338); assay: Inhibition of human MAO-B using p-tyramine as substrate incubated for 15 mins followed by substrate addition measured for 20 mins by fluorescence assay
# T2 sequence (P27338 whole entry): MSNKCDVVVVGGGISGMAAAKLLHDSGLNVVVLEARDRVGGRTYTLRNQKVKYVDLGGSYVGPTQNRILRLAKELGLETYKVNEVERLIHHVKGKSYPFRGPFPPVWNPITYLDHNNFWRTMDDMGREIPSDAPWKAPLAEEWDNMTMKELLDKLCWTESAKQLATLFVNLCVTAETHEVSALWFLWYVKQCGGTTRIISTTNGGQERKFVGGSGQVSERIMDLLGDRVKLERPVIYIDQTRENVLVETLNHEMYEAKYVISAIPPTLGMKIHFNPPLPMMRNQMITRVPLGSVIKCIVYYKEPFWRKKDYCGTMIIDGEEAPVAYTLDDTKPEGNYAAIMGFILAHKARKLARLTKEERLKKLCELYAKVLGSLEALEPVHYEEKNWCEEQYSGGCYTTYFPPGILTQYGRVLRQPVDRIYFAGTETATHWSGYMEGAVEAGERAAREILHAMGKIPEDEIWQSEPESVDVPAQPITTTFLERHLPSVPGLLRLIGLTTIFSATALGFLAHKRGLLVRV
# [10] = Antioxidant activity assessed as DPPH radical scavenging activity measured after 30 mins incubation in dark by UV-Visible spectrophotometric analysis; type: functional
# PC-12 [11] = assay: Reversal of H2O2-induced calcium overload in rat PC12 cells assessed as mean fluorescence intensity at 5 uM after 48 hrs by Fluo-3/AM probe based flow cytometry (reference value: 454014); type: functional
# PC-12 [12] = assay: Reversal of H2O2-induced calcium overload in rat PC12 cells assessed as mean fluorescence intensity at 10 uM after 48 hrs by Fluo-3/AM probe based flow cytometry (reference value: 454014); type: functional
# PC-12 [13] = assay: Reversal of H2O2-induced calcium overload in rat PC12 cells after 48 hrs by Fluo-3/AM probe based flow cytometry; type: functional, cell-based
# BV-2 [14] = assay: Antineuroinflammatory activity in mouse BV2 cells assessed as inhibition of LPS-induced NO production at 10 to 30 uM after 24 hrs by Griess assay; type: functional, cell-based
# BV-2 [15] = assay: Inhibition of LPS-induced intracellular ROS production in mouse BV2 cells assessed as mean fluorescence intensity at 5 uM incubated with LPS for 18 hrs followed by compound addition measured after 36 hrs by DCFH-DA probe based flow cytometry (reference value: 493530); type: functional
# BV-2 [16] = assay: Inhibition of LPS-induced intracellular ROS production in mouse BV2 cells assessed as mean fluorescence intensity at 20 uM incubated with LPS for 18 hrs followed by compound addition measured after 36 hrs by DCFH-DA probe based flow cytometry (reference value: 493530); type: functional
# [17] = Half life in Sprague-Dawley rat liver microsomes in presence of NADPH by UPLC/MS analysis; conditions: liver microsomes
# Mus musculus [18] = assay: Acute toxicity in mouse assessed as abnormal changes in water or food consumption at 677 to 2000 mg/kg, po measured continuously for first 4 hrs and intermittently for next 24 hrs and occasionally for 14 days; type: organism-based; conditions: in vivo
# Mus musculus [19] = assay: Acute toxicity in mouse assessed as abnormal changes in lung at 2000 mg/kg, po measured continuously for first 4 hrs and intermittently for next 24 hrs and occasionally for 14 days by hematoxylin and eosin staining based microscopic method; type: organism-based; conditions: in vivo
# Mus musculus [20] = assay: Toxicity in ICR mouse assessed as change in body weight at 5 to 10 mg/kg, po administered for 10 consecutive days; type: organism-based; conditions: in vivo
# Mus musculus [21] = assay: Toxicity in ICR mouse assessed as mouse survival at 5 to 10 mg/kg, po administered for 10 consecutive days; type: organism-based; conditions: in vivo
# Cholinesterase, sequence (P06276 whole entry): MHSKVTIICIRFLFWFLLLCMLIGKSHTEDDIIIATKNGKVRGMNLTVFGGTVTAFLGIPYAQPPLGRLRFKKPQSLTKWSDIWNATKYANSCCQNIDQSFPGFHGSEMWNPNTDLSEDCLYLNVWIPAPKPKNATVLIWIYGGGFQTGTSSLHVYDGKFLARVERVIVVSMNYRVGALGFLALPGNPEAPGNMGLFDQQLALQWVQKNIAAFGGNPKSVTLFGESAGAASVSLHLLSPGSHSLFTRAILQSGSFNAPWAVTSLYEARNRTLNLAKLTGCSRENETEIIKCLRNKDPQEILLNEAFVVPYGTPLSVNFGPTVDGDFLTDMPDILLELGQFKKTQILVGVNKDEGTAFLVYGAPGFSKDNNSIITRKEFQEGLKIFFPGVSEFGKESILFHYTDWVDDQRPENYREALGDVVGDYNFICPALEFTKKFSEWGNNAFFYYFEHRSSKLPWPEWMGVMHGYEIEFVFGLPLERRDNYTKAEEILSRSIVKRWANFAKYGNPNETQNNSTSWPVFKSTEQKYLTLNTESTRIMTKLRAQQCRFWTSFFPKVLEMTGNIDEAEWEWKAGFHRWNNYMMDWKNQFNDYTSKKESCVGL
# Acetylcholinesterase (Electrophorus electricus, UniProt O42275), sequence (O42275 whole entry): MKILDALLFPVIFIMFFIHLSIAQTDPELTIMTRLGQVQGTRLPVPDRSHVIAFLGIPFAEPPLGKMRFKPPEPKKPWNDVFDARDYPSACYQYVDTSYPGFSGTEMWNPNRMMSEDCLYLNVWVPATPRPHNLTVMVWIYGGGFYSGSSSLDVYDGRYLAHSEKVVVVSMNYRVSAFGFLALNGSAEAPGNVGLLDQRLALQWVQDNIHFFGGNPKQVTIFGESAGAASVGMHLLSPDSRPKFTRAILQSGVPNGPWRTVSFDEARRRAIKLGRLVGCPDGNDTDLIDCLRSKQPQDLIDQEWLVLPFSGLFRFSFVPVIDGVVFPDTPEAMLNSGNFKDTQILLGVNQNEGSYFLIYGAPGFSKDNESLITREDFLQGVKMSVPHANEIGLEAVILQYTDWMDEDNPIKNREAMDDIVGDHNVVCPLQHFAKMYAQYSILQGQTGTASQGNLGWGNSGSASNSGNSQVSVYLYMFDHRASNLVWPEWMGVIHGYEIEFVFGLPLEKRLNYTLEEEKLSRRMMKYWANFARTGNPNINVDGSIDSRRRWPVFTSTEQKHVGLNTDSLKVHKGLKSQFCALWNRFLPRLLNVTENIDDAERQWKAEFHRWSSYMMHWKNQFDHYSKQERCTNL
# Acetylcholinesterase (Homo sapiens, UniProt P22303), sequence (P22303 whole entry): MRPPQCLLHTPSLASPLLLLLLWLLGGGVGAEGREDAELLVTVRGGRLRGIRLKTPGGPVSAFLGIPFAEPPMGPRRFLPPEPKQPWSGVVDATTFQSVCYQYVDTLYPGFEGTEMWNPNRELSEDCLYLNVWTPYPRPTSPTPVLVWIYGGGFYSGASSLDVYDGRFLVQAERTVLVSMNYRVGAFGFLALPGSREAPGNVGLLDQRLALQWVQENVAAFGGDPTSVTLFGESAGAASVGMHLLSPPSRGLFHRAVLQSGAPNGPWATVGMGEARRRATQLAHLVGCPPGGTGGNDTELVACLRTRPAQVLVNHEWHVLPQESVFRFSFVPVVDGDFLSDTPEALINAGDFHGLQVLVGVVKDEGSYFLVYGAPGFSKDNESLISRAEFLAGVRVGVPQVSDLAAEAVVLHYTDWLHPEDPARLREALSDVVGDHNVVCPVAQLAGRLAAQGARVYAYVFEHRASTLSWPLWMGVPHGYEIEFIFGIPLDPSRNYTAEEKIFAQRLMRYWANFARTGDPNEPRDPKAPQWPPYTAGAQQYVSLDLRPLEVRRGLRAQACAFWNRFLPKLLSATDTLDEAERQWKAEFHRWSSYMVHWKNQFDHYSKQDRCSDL
compound,measurement,setting,value
CC(C)(C)c1cc(/C=C/C(=O)NCCC2CCN(Cc3ccccc3F)CC2)cc(C(C)(C)C)c1O,Activity,PC-12 [1],5.7%
same,IC50,Acetylcholinesterase [2],0.075 µM
same,Activity,PC-12 [3],9%
same,inhibition,Cholinesterase,38.4%
same,Ratio IC50,Homo sapiens,> 133
same,Activity,PC-12 [4],14.8%
same,Ki,Acetylcholinesterase [5],1.4 µM
same,Activity,PC-12 [6],Dose-dependent effect
same,Activity,PC-12 [7],Non-Toxic
same,IC50,[8],60.2 µM
same,IC50,[9],7.4 µM
same,IC50,[10],55.9 µM
same,Flu intensity,PC-12 [11],251576
same,Flu intensity,PC-12 [12],157903
same,Activity,PC-12 [13],Dose-dependent effect
same,inhibition,BV-2 [14],Active
same,Flu intensity,BV-2 [15],479700
same,Flu intensity,BV-2 [16],310450
same,half-life,[17],1.49 h
same,Activity,Mus musculus [18],Non-Toxic
same,Activity,Mus musculus [19],Non-Toxic
same,Activity,Mus musculus [20],Non-Toxic
same,Activity,Mus musculus [21],Non-Toxic
